Earlier results as cited in patent US20230233480A1, “TRANSDERMAL THERAPEUTIC SYSTEM FOR THE TRANSDERMAL ADMINISTRATION OF FINGOLIMOD” (LTS LOHMANN THERAPIE-SYSTEME AG, priority 2019, published 2023).

- ratio of Cmax fingolimod phosphate/Cmax fingolimod (humans at steady state after administration of 0.5 mg/day): about 0.5
- accumulation of blood levels from first dose to steady state (humans, once-daily dosing): ~11 fold
Compound: CCCCCCCCc1ccc(CCC(N)(CO)CO)cc1 [fingolimod, 2-amino-2-[2-(4-octylphenyl)ethyl]propane-1,3-diol]
